# Source: US7846930B2, “Diaryl-substituted tetrahydroisoquinolines as histamine H3 receptor and serotonin transporter modulators” (Janssen Pharmaceutica NV, priority 2007, dated 2010)
# Counter-ions that a name gives are not always drawn.
# Columns and labels:
# [1] = target: T1, human SERT (HEK293 membranes) (Homo sapiens, UniProt P31645); test: Human SERT 3H-citalopram binding; details: HEK293 membranes expressing human SERT, rt 1 h
# T1 construct: expressed in transfected cells; host or cells: HEK293
# T1 sequence (P31645 whole entry): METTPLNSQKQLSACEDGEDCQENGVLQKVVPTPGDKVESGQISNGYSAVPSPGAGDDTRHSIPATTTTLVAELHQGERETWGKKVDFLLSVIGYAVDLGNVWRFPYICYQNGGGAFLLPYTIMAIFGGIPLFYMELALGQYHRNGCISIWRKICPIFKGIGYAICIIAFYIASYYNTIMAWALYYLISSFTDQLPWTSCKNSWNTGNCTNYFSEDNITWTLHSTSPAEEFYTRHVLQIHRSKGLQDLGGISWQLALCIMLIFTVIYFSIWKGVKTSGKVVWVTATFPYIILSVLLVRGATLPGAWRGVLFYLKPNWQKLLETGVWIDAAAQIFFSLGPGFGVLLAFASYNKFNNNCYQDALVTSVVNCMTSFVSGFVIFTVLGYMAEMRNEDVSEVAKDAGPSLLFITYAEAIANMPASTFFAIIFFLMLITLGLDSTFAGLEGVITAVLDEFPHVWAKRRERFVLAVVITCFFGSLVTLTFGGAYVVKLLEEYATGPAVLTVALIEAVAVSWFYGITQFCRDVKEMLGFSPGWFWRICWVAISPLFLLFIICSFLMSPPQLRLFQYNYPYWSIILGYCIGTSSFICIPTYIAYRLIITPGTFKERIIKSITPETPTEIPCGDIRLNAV
# Procedure: Homogenized HEK293 (Human Embryonic Kidney) membranes expressing the human SERT were incubated with ^3H-citalopram (SERT) at rt for 1 h in 50 mM Tris, 120 mM NaCl, 5 mM KCl (pH 7.4). Nonspecific binding was determined in the presence of 10 μM fluoxetine for the SERT. The membranes were washed and the radioactivity was counted as above. Calculations for Ki at the SERT were based on a Kd value for ^3H-citalopram and a ligand concentration of 3.1 nM.
# Rat brain SERT = target: T2, Rat brain SERT (Rattus norvegicus, UniProt P31652); test: Rat brain SERT [3H]-citalopram binding; details: rat brain membranes, 0.6 nM [3H]-Citalopram, 60 min at 25° C.
# T2 construct: A rat brain without cerebellum (Zivic Laboratories, Inc.-Pittsburgh, Pa.) was homogenized; tissue Zivic Laboratories, Inc; host or cells: rat brain without cerebellum, membrane preparation
# T2 sequence (P31652 whole entry): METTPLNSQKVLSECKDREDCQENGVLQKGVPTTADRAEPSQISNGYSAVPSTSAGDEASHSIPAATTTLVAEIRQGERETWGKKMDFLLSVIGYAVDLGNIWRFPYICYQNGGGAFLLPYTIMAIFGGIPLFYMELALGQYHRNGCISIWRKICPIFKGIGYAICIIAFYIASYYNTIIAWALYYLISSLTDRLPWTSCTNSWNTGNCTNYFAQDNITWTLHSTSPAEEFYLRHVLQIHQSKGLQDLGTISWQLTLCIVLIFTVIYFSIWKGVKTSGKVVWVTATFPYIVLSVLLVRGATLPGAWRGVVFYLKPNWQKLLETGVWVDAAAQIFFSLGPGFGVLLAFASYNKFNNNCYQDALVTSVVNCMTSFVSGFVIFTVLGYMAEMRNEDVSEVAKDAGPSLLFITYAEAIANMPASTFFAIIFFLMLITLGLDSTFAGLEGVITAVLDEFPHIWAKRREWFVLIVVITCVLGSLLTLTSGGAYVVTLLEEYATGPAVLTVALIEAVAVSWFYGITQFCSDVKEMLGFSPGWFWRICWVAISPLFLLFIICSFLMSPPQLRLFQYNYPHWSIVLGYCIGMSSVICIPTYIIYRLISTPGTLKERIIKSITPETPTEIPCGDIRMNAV
# Procedure: A rat brain without cerebellum (Zivic Laboratories, Inc.-Pittsburgh, Pa.) was homogenized in a 52.6 mM Tris pH 8/126.4 mM NaCl/5.26 mM KCl mixture and centrifuged at 1,000 rpm for 5 min. The supernatant was removed and re-centrifuged at 15,000 rpm for 30 min. Pellets were re-homogenized in a 52.6 mM Tris pH8/126.4 mM NaCl/5.26 mM KCl mixture. Membranes were incubated with 0.6 nM [^3H]-Citalopram plus/minus test compounds for 60 min at 25° C. and harvested by rapid filtration over GF/C glass fiber filters (pretreated with 0.3% polyethylenimine) followed by four washes with ice-cold buffer. Nonspecific binding was defined in the presence of 100 μM fluoxetine. IC50 values were determined by a single site curve-fitting program (GraphPad, San Diego, Calif.) and converted to Ki values based on a [^3H]-Citalopram Kd of 0.6 nM and a ligand concentration of 0.6 nM.
# [2] = target: T3, cloned human H3 receptors, stably expressed in SK-N-MC cells (Homo sapiens, UniProt Q9Y5N1); test: H3 receptor binding
# T3 construct: expressed in transfected cells
# T3 sequence (Q9Y5N1 whole entry): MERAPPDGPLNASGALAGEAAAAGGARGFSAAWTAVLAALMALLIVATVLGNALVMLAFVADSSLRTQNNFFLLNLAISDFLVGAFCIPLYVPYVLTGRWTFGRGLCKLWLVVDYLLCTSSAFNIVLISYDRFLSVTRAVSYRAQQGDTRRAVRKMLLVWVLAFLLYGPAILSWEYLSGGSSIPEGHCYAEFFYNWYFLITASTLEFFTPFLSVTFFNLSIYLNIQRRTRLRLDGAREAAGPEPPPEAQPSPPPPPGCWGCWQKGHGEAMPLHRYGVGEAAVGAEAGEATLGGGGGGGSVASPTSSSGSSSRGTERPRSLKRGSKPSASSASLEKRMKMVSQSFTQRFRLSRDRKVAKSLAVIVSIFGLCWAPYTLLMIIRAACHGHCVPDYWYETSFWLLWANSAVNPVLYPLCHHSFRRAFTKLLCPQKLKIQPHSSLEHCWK
# Procedure: Binding of compounds to the cloned human H3 receptors, stably expressed in SK-N-MC cells, was performed as described by Barbier, A. J. et al. (Br. J. Pharmacol. 2004, 143(5), 649-661).
SMILES,Ki [1] [nM],Ki (Rat brain SERT) [nM],Ki [2] [nM]
"CSc1ccc(C2CN(C)Cc3cc(Oc4cccc(CN5CCCCC5)c4)ccc32)cc1 (stereo not shown) [Example 1A, 2-Methyl-4-(4-methylsulfanyl-phenyl)-7-(3-piperidin-1-ylmethyl-phenoxy)-1,2,3,4-tetrahydro-isoquinoline trifluoroacetic acid salt]",17.7,11.7,18
"CSc1ccc(C2CN(C)Cc3cccc(Oc4cccc(CN5CCCCC5)c4)c32)cc1 (stereo not shown) [Example 1B, 2-Methyl-4-(4-methylsulfanyl-phenyl)-5-(3-piperidin-1-ylmethyl-phenoxy)-1,2,3,4-tetrahydro-isoquinoline Trifluoroacetic Acid Salt]",616,403,253
"CSc1ccc(C2CN(C)Cc3cc(Oc4cccc(CN5CCCCC5)n4)ccc32)cc1 (stereo not shown) [Example 2, 2-Methyl-4-(4-methylsulfanyl-phenyl)-7-(6-piperidin-1-ylmethyl-pyridin-2-yloxy)-1,2,3,4-tetrahydro-isoquinoline Trifluoroacetic Acid Salt]",22,11.7,51
"CSc1ccc(C2CN(C)Cc3cc(Oc4ccnc(CN5CCCCC5)c4)ccc32)cc1 (stereo not shown) [Example 3A, 2-2-Methyl-4-(4-methylsulfanyl-phenyl)-7-(2-piperidin-1-ylmethyl-pyridin-4-yloxy)-1,2,3,4-tetrahydro-isoquinoline Trifluoroacetic Acid Salt]",10.4,25.7,323
"CSc1ccc(C2CN(C)Cc3cccc(Oc4ccnc(CN5CCCCC5)c4)c32)cc1 (stereo not shown) [Example 3B, 2-Methyl-4-(4-methylsulfanyl-phenyl)-5-(2-piperidin-1-ylmethyl-pyridin-4-yloxy)-1,2,3,4-tetrahydro-isoquinoline Trifluoroacetic Acid Salt]",157,182,265
"CSc1ccc(C2CN(C)Cc3cccc(Oc4cncc(CN5CCCCC5)c4)c32)cc1 (stereo not shown) [Example 4B, 2-Methyl-4-(4-methylsulfanyl-phenyl)-5-(5-piperidin-1-ylmethyl-pyridin-3-yloxy)-1,2,3,4-tetrahydro-isoquinoline Trifluoroacetic Acid Salt]",262,174,511
"CSc1ccc(C2CN(C)Cc3cc(Oc4cc(CN5CCCCC5)ccn4)ccc32)cc1 (stereo not shown) [Example 5, 2-Methyl-4-(4-methylsulfanyl-phenyl)-7-(4-piperidin-1-ylmethyl-pyridin-2-yloxy)-1,2,3,4-tetrahydro-isoquinoline]",2.4,8.7,34.3
"CSc1ccc(C2CN(C)Cc3cc(Oc4nc(CN5CCCCC5)cs4)ccc32)cc1 (stereo not shown) [Example 6, 2-Methyl-4-(4-methylsulfanyl-phenyl)-7-(4-piperidin-1-ylmethyl-thiazol-2-yloxy)-1,2,3,4-tetrahydro-isoquinoline]",4.3,5.2,20.7
"CSc1ccc(C2CN(C)Cc3cc(Oc4ccc(CN5CCCCC5)cn4)ccc32)cc1 (stereo not shown) [Example 7, 2-Methyl-4-(4-methylsulfanyl-phenyl)-7-(5-piperidin-1-ylmethyl-pyridin-2-yloxy)-1,2,3,4-tetrahydro-isoquinoline]",2.3,4.5,8.2
"CSc1ccc(C2CN(C)Cc3cc(Oc4ccc(CN5CCCCC5)nc4)ccc32)cc1 (stereo not shown) [Example 8, 2-Methyl-4-(4-methylsulfanyl-phenyl)-7-(6-piperidin-1-ylmethyl-pyridin-3-yloxy)-1,2,3,4-tetrahydro-isoquinoline]",8,7.5,24.3
"CSc1ccc(C2CN(C)Cc3cc(Oc4ccc(CN5CCCCC5)cc4)ccc32)cc1 (stereo not shown) [Example 9, 2-Methyl-4-(4-methylsulfanyl-phenyl)-7-(4-piperidin-1-ylmethyl-phenoxy)-1,2,3,4-tetrahydro-isoquinoline]",3.8,4.3,22.7
"CSc1ccc(C2CN(C)Cc3cc(Oc4ccc(CN5CCOCC5)cn4)ccc32)cc1 (stereo not shown) [Example 10, 2-Methyl-4-(4-methylsulfanyl-phenyl)-7-(5-morpholin-4-ylmethyl-pyridin-2-yloxy)-1,2,3,4-tetrahydro-isoquinoline]",7.9,11,260
"CSc1ccc(C2CN(C)Cc3cc(Oc4nc(CN5CCOCC5)cs4)ccc32)cc1 (stereo not shown) [Example 11, 2-Methyl-4-(4-methylsulfanyl-phenyl)-7-(4-morpholin-4-ylmethyl-thiazol-2-yloxy)-1,2,3,4-tetrahydro-isoquinoline]",–,–,201
"CSc1ccc(C2CN(C)Cc3cc(Oc4ccc(CN5CCC(F)CC5)cn4)ccc32)cc1 (stereo not shown) [Example 12, 7-[5-(4-Fluoro-piperidin-1-ylmethyl)-pyridin-2-yloxy]-2-methyl-4-(4-methylsulfanyl-phenyl)-1,2,3,4-tetrahydro-isoquinoline]",6.5,14.3,110
"CSc1ccc(C2CN(C)Cc3cc(Oc4ncc(CN5CCCCC5)s4)ccc32)cc1 (stereo not shown) [Example 13, 2-Methyl-4-(4-methylsulfanyl-phenyl)-7-(5-piperidin-1-ylmethyl-thiazol-2-yloxy)-1,2,3,4-tetrahydro-isoquinoline]",3.2,4,20.7
